# Reference: patent US8703723B2, “Glycoside compounds and pharmaceutical compositions thereof” (Centrose, LLC, priority 2009, dated 2014)
# Read-outs that look alike come from different tables or passages of the source.
# Experiments:
# [1] = system: SKOV3 (Ovarian) cell line; details: footnote 2: data from Langenhan et al. 2005; cited from earlier work
# A549 (NSCLC) cell line [2] = test: Cancer cell cytotoxicity assay (Calcein AM / Cell Titer-Glo), A549; format: cell-based, human; details: NSCLC
# Experimental: (§1) Compounds of the invention and comparative compounds were assayed in three cancer cell lines to confirm cytotoxic activity and to set a range of concentrations to use in subsequent assays. All cell lines were maintained in RPMI medium 1640 supplemented with 10% (wt/vol) fetal bovine serum and penicillin-streptomycin (100 units/ml and 100 μg/ml). Cells were routinely checked for microbial or mycoplasma contamination and if necessary replaced. Cells were harvested by trypsinization using 0.25% trypsin and 0.1% EDTA and then counted in a ViCell XR coulter counter in duplicate, before and after dilution for assay plating. Between four to nine different types of human cancer cells were plated at a density of 10,000-15,000 cells per well of each 96-well black tissue culture treated microtiter plate, then were grown for 1 hour at 37° C. with 5% CO2/95% air in a humidified incubator to allow cells to attach before compound addition. Compound stocks (100×) were prepared in 96-well V-bottom polypropylene microtiter plates. Five serial (1:2) dilutions were made with anhydrous DMSO at 100× the final concentration used in the assay. The individual wells in compound-containing […] well plates were diluted 1:10 with complete cell culture medium and the 10× (10 μL) stocks were added to 90 μl of cells in each plate to ensure full mixing of stocks with culture media by using a Biomek FX liquid handler with 96-well head. Doxorubicin was used as the control to monitor the behavior of each cell line. Cells were incubated with the compounds for 3 to 4 days before fluorescence and luminescence reading. Test plates were removed from the incubator and washed once in sterile PBS to remove serum containing calcium esterases. Calcein AM (acetoxymethyl ester) reagent was added and the cells were incubated for 30 min at 37° C. Plates were read for emission by using a fluorescein filter (excitation 485 nm, emission 535 nm). An equal volume (30 μL) of Cell Titer-Glo reagent (Promega Corporation, Inc.) was added and incubated for 10 min at room temperature with gentle agitation to lyse the cells. Each plate was re-read for luminescence to confirm the inhibition observed in the fluorescent […] assay as a measure of cell viability. The cancer cell cytotoxicity assays were run in triplicate using ≧5 different drug concentrations, and the data were analyzed to establish statistical significance and a valid IC50 value for inhibition of cell growth, based on ≧2 log differences in drug effect.
# (§2) The cancer cell cytotoxicities (determined substantially according to the method of Example 5) of various compounds of the invention and comparative compounds as determined in four to five different human cancer cell lines are shown in Table 1. The structures of the compounds listed are found in FIGS. 2-4.
# [3] = system: NCI-H460 (NSCLC) cell line; details: footnote 2: data from Langenhan et al. 2005; cited from earlier work
# [4] = system: NCI-H460 (NSCLC) cell line; test: Cancer cell cytotoxicity assay (Calcein AM / Cell Titer-Glo), NCI-H460; format: cell-based, human; details: NSCLC
# Experimental: as §1, §2
# H1299 (NSCLC) cell line = test: Cancer cell cytotoxicity assay (Calcein AM / Cell Titer-Glo), H1299; format: cell-based, human; details: NSCLC
# Experimental: as §1, §2
# A549 (NSCLC) cell line [5] = details: footnote 2: data from Langenhan et al. 2005; cited from earlier work
# [6] = system: HT29 (Colorectal) cell line; test: Cancer cell cytotoxicity assay (Calcein AM / Cell Titer-Glo), HT29; format: cell-based, human; details: Colorectal
# Experimental: as §1, §2
# [7] = system: SKOV3 (Ovarian) cell line; test: Cancer cell cytotoxicity assay (Calcein AM / Cell Titer-Glo), SKOV3; format: cell-based, human; details: Ovarian
# Experimental: as §1, §2
# [8] = footnote 3: determined at same time as CEN07-117 and -121
# [9] = footnote 4: determined at same time as CEN08-177 and -178
# [10] = footnote 5: determined at same time as CEN08-193
# [11] = footnote 6: determined at same time as CEN08-243 and -244
# [12] = footnote 7: determined at same time as CEN08-180
Structure (SMILES),IC50 [1] [µM],IC50 (A549 (NSCLC) cell line [2]; [8]) [µM],IC50 (A549 (NSCLC) cell line [2]; [10]) [µM],IC50 (A549 (NSCLC) cell line [2]; [12]) [µM],IC50 [3] [µM],"IC50 [4, 8] [µM]","IC50 [4, 10] [µM]","IC50 [4, 12] [µM]",IC50 (H1299 (NSCLC) cell line; assay set not specified) [µM],IC50 (H1299 (NSCLC) cell line; [8]) [µM],IC50 (H1299 (NSCLC) cell line; [10]) [µM],IC50 (A549 (NSCLC) cell line [5]) [µM],"IC50 [6, 8] [µM]","IC50 [6, 10] [µM]","IC50 [6, 12] [µM]","IC50 [7, 10] [µM]","IC50 [7, 12] [µM]",further results
"CON(C1CCC2(C)C(CCC3C2CCC2(C)C(C4=CC(=O)OC4)CCC32O)C1)C1OCC(O)C(O)C1O [CEN07-W-102 (5S), reference compound]",0.045,0.04,0.003,0.008,0.053,0.11,0.005,0.024,0.009,0.11,0.006,0.033,0.12,0.007,0.033,0.026,0.036,"IC50 (A549 (NSCLC) cell line [2]; [9]): 0.01 µM; IC50 (A549 (NSCLC) cell line [2]; [11]): 0.017 µM; IC50 [4, 9]: 0.01 µM; IC50 [4, 11]: 0.015 µM; IC50 (H1299 (NSCLC) cell line; [9]): 0.02 µM; IC50 (H1299 (NSCLC) cell line; [11]): 0.02 µM; IC50 ([6]; assay set not specified): 0.02 µM; IC50 ([7]; assay set not specified): 0.31 µM; IC50 [7, 9]: 0.04 µM; IC50 [7, 11]: 0.025 µM"
"CON(C1CCC2(C)C(CCC3C2CCC2(C)C(C4=CC(=O)OC4)CCC32O)C1)C1OCC(O)C(O)C1O [CEN07-W-101 (23S), reference compound]",0.22,0.05,0.004,0.009,0.08,0.15,0.008,0.037,0.017,0.17,0.006,0.079,0.1,0.009,0.046,0.039,0.051,–
